molecular target: Stromelysin-1 (Homo sapiens, UniProt P08254); assay: Inhibitory activity against Matrix metalloprotease-3
Sequence (P08254 whole entry): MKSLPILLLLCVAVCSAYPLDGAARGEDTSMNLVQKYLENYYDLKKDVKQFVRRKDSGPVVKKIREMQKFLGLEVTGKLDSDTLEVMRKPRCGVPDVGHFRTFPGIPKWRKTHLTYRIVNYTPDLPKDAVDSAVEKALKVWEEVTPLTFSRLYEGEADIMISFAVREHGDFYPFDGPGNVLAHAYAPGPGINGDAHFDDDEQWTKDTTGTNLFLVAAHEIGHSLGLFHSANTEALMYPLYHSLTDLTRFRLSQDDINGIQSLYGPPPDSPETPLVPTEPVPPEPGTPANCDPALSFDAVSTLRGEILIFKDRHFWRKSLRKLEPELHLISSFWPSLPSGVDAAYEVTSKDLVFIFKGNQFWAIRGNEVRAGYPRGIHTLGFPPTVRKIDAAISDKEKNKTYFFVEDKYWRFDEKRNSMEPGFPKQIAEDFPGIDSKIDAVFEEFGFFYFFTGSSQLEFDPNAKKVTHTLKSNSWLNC

Q: For `COc1ccc(S(=O)(=O)NCC[C@H](N[C@@H](CCc2ccccc2)C(=O)N2CCC(O)CC2)C(=O)O)cc1`, which IC50 is on record?
A: > 20000 nM

Q: For `CNC(=O)c1ccc(CNC(=O)[C@H](CCc2ccccc2)N[C@@H](CCNS(=O)(=O)c2ccc(OC)cc2)C(=O)O)cc1`, which IC50 is on record?
A: 18000 nM

Q: How did the IC50 turn out when `CNC(=O)[C@H](Cc1ccccc1)NC(=O)[C@H](CCc1ccccc1)N[C@@H](CCNS(=O)(=O)c1ccc(C)cc1)C(=O)O` was run?
A: 120 nM

Q: How did the IC50 turn out when `CNC(=O)[C@H](Cc1ccccc1)NC(=O)[C@H](CCc1ccccc1)N[C@@H](CCNC(=O)c1cc2ccccc2[nH]1)C(=O)O` was run?
A: 1100 nM

Q: For `COc1ccc(S(=O)(=O)NCC[C@H](N[C@@H](CCc2ccccc2)C(=O)N2CCN(S(C)(=O)=O)CC2)C(=O)O)cc1`, which IC50 is on record?
A: > 20000 nM

Q: For `COc1ccc(S(=O)(=O)NCC[C@H](N[C@@H](CCc2ccccc2)C(=O)NCc2ccc(C(=O)O)cc2)C(=O)O)cc1`, which IC50 is on record?
A: 14000 nM

Q: Which IC50 does the source give for `COc1ccc(S(=O)(=O)NCC[C@H](N[C@@H](CCc2ccccc2)C(=O)N2CCOCC2)C(=O)O)cc1` here?
A: > 20000 nM

Q: Which IC50 does the source give for `CNC(=O)[C@H](Cc1ccccc1)NC(=O)[C@H](CCc1ccccc1)N[C@@H](CCN1C(=O)NC2(CCCC2)C1=O)C(=O)O` here?
A: 1900 nM

Q: `COc1ccc(S(=O)(=O)NCC[C@H](N[C@@H](CCc2ccccc2)C(=O)N[C@@H](CC(C)C)C(=O)NOCc2ccccc2)C(=O)O)cc1` was tested. Which IC50 did it give?
A: 550 nM

Q: `Cc1ccc(S(=O)(=O)NCC[C@H](N[C@@H](CCc2ccccc2)C(=O)N[C@@H](CC(C)C)C(=O)Nc2ccccc2)C(=O)O)cc1` was tested. Which IC50 did it give?
A: 50 nM

Q: How did the IC50 turn out when `CCOC(=O)N1CCC(NC(=O)[C@H](CCc2ccccc2)N[C@@H](CCNS(=O)(=O)c2ccc(OC)cc2)C(=O)O)CC1` was run?
A: > 20000 nM

Q: For `CNC(=O)[C@H](Cc1ccccc1)NC(=O)[C@H](CCc1ccccc1)N[C@@H](CCNS(=O)(=O)c1ccc2ccccc2c1)C(=O)O`, which IC50 is on record?
A: 510 nM

Q: With `COc1ccc(S(=O)(=O)NCC[C@H](N[C@@H](CCc2ccccc2)C(=O)N[C@@H](CC(C)C)C(=O)Nc2ccccc2)C(=O)O)cc1` as the compound, how does the IC50 read?
A: 50 nM

Q: How did the IC50 turn out when `CCOC(=O)N1CCN(C(=O)[C@H](CCc2ccccc2)N[C@@H](CCNS(=O)(=O)c2ccc(OC)cc2)C(=O)O)CC1` was run?
A: > 20000 nM

From ChEMBL document CHEMBL1128973, “Potent matrix metalloproteinase inhibitors: Amino-carboxylate compounds containing modifications of the P1 residue” (Bioorg Med Chem Lett, 1996)
